According to paper PMC3433420 (PLoS ONE, 2012):
Residues, ends and D or L forms follow the SMILES beside them.

Key:
PIK3R2-N SH2 domain = PIK3R2-N SH2 domain (Homo sapiens, UniProt O00459); experiment: FP saturation binding assay
RASA1-N SH2 domain = molecular target: T1, RASA1-N SH2 domain (Homo sapiens, UniProt P20936); experiment: FP saturation binding assay
T1 sequence (P20936 181-272 limits assumed): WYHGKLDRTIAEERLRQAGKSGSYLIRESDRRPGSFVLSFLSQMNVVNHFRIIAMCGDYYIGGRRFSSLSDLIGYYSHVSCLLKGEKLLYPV

[1] = molecular target: PIK3R2-NC tandem SH2 domains (Homo sapiens, UniProt O00459); experiment: FP saturation binding assay
PIK3R2-NC tandem SH2 domains, sequence (O00459 330-716 limits assumed): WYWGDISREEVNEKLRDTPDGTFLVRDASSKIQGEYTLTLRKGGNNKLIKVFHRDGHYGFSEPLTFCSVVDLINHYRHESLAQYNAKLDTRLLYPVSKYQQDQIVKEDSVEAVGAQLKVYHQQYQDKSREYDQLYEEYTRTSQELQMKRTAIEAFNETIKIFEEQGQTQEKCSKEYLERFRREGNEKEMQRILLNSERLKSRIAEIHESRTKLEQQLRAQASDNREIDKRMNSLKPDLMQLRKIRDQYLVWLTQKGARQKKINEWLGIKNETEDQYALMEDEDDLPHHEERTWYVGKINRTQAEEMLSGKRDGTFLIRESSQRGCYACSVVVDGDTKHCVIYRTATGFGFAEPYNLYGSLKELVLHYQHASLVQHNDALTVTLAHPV

PIK3R3-N SH2 domain = molecular target: T2, PIK3R3-N SH2 domain (Homo sapiens, UniProt Q92569); experiment: FP saturation binding assay; settings: high-confidence ErbB interactions
T2 construct: 6X His; thioredoxin; made in house; host or cells: E. coli BL21(DE3)pLysS
How it was run: (§1)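 Rhodamine-labeled phosphopeptides (10 nM final) titrated with SH2 domain protein (0.002–10 µM, 12 points) in 20 mM HEPES, 100 mM KCl, 0.1% Tween-20, 5 mM DTT, pH 7.8; 20 min, room temperature, dark. FP read at 530/555 nm; KD fitted by nonlinear regression after thioredoxin background correction and outlier removal.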

[2] = molecular target: T3, RASA1-NC tandem SH2 domains (Homo sapiens, UniProt P20936); experiment: FP saturation binding assay; settings: Protein RASA1-NC; FP saturation binding, high-confidence ErbB interactions; mean over replicate hits
T3 construct: the tandem protein was included in our analysis with all internal amino acids linking the domains; 6X His; thioredoxin; made in house; host or cells: E. coli BL21(DE3)pLysS
T3 sequence (P20936 181-441 limits assumed): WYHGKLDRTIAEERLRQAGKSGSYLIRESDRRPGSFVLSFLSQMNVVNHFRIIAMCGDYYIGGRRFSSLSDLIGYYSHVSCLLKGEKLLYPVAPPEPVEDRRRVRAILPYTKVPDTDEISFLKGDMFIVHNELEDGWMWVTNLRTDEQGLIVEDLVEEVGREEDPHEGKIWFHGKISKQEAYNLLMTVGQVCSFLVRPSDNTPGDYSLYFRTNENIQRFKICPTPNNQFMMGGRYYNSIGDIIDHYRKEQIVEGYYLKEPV
How it was run: as §1

PTK6 SH2 domain = molecular target: T4, PTK6 SH2 domain (Homo sapiens, UniProt Q13882); experiment: FP saturation binding assay; settings: high-confidence ErbB interactions
T4 construct: from the PTK6 SH2 domain; 6X His; thioredoxin; made in house; host or cells: E. coli BL21(DE3)pLysS
T4 sequence (Q13882 78-170 limits assumed): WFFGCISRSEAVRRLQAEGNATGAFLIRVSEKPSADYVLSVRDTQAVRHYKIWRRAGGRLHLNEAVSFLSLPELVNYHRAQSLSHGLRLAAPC
How it was run: as §1

PIK3R1-N SH2 domain = molecular target: T5, PIK3R1-N SH2 domain (Homo sapiens, UniProt P27986); experiment: biochemical; type: binding; settings: protein PIK3R1-N; FP, high-confidence ErbB interactions; mean of replicate hits
T5 construct: thioredoxin; made in house; host or cells: E. coli BL21(DE3)pLysS
T5 sequence (P27986 333-428 limits assumed): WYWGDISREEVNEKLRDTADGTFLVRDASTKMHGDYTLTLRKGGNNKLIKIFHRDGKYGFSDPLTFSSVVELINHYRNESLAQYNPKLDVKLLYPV

PIK3R1-C SH2 domain = molecular target: T6, PIK3R1-C SH2 domain (Homo sapiens, UniProt P27986); experiment: FP saturation binding assay; settings: protein PIK3R1-C, high-confidence ErbB interactions, mean of replicate hits
T6 construct: 6X His; thioredoxin; made in house; host or cells: E. coli BL21(DE3)pLysS
T6 sequence (P27986 624-718 limits assumed): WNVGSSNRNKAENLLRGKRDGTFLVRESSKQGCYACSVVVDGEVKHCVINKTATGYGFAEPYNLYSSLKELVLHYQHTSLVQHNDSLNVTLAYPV
How it was run: as §1

GRB7 SH2 domain = GRB7 SH2 domain (Homo sapiens, UniProt Q14451); experiment: FP saturation binding assay; settings: Mean KD (μM), protein GRB7; FP, high-confidence ErbB interactions; mean of replicate hits
GRB7 SH2 domain, sequence (Q14451 431-527 limits assumed): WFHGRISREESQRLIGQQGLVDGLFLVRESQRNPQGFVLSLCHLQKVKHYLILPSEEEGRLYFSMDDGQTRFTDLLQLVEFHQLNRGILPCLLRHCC

PTPN11-N SH2 domain = molecular target: T7, PTPN11-N SH2 domain (Homo sapiens, UniProt Q06124); experiment: FP saturation binding assay
T7 sequence (Q06124 6-102 limits assumed): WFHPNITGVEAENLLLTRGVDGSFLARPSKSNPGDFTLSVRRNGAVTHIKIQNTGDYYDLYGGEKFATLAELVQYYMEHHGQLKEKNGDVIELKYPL

[3] = molecular target: T8, PTPN11-NC tandem SH2 domains (Homo sapiens, UniProt Q06124); experiment: FP saturation binding assay
T8 sequence (Q06124 6-216 limits assumed): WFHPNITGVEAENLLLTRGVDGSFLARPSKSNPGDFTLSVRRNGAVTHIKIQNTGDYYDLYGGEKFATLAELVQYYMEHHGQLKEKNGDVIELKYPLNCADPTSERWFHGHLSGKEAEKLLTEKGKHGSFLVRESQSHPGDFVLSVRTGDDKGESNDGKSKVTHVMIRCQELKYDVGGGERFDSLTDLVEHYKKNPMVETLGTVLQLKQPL

SH2D1B SH2 domain = molecular target: T9, SH2D1B SH2 domain (Homo sapiens, UniProt O14796); experiment: FP saturation binding assay
T9 sequence (O14796 5-101 limits assumed): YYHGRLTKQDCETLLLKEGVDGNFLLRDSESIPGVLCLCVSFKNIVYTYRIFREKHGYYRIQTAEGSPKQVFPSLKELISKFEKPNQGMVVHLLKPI

[4] = molecular target: T10, PIK3R3-NC tandem SH2 domains (Homo sapiens, UniProt Q92569); experiment: FP saturation binding assay; settings: high-confidence ErbB interactions
T10 construct: the tandem protein was included in our analysis with all internal amino acids linking the domains; 6X His; thioredoxin; made in house; host or cells: E. coli BL21(DE3)pLysS
How it was run: as §1

PIK3R3-C SH2 domain = molecular target: T11, PIK3R3-C SH2 domain (Homo sapiens, UniProt Q92569); experiment: biochemical; type: binding; settings: protein PIK3R3-C; FP, high-confidence ErbB interactions; mean of replicate hits
T11 construct: thioredoxin; made in house; host or cells: E. coli BL21(DE3)pLysS

PLCG1-C SH2 domain = molecular target: T12, PLCG1-C SH2 domain (Homo sapiens, UniProt P19174); experiment: biochemical; type: binding; settings: protein PLCG1-C; high-confidence ErbB interactions; mean of replicate hits
T12 construct: The 6X His-tagged SH2 domain proteins used in the assay, PLCG1-C, SHC4, VAV2; thioredoxin; made in house; host or cells: E. coli BL21(DE3)pLysS
T12 sequence (P19174 668-756 limits assumed): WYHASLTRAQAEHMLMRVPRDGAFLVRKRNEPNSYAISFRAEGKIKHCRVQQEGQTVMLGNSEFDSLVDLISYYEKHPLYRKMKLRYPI

[5] = molecular target: T13, PIK3R1-NC tandem SH2 domains (Homo sapiens, UniProt P27986); experiment: FP saturation binding assay; settings: protein PIK3R1-NC; FP, high-confidence ErbB interactions; mean of replicate hits
T13 construct: the tandem protein was included in our analysis with all internal amino acids linking the domains; 6X His; thioredoxin; made in house; host or cells: E. coli BL21(DE3)pLysS
T13 sequence (P27986 333-718 limits assumed): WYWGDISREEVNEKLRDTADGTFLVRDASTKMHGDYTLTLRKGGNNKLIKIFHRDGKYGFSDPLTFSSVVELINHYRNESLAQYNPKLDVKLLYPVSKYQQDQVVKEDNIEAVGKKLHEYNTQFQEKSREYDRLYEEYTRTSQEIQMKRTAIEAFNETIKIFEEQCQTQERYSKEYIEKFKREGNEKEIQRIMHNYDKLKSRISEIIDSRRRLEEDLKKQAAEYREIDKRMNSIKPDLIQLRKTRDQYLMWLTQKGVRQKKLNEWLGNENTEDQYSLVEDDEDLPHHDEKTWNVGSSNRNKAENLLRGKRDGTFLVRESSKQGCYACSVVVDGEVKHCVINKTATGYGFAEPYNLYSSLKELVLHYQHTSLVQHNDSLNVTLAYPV
How it was run: as §1

YES1 SH2 domain = molecular target: T14, YES1 SH2 domain (Homo sapiens, UniProt P07947); experiment: FP saturation binding assay; settings: high-confidence ErbB interactions
T14 construct: 6X His; thioredoxin; made in house; host or cells: BL21(DE3)pLysS E. coli
T14 sequence (P07947 158-255 limits assumed): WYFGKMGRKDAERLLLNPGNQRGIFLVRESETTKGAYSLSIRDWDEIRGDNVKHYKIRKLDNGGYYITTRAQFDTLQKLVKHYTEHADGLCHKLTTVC
How it was run: as §1

LCK SH2 domain = molecular target: T15, LCK SH2 domain (Homo sapiens, UniProt P06239); experiment: FP saturation binding assay; settings: Protein LCK; FP saturation binding, high-confidence ErbB interactions; mean over replicate hits
T15 construct: 93 SH2 and 2 PTB domain-containing constructs; 6X His; thioredoxin; made in house; host or cells: E. coli BL21(DE3)pLysS
T15 sequence (P06239 127-224 limits assumed): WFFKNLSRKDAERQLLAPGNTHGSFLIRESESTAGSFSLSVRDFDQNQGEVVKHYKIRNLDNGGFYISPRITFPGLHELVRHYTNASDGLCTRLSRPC
How it was run: as §1

[6] = protein PIK3R3-N, FP, mean of replicate hits
[7] = protein PIK3R3-NC, FP, mean of replicate hits

PIK3R2-N SH2 domain, sequence (O00459 330-425 limits assumed): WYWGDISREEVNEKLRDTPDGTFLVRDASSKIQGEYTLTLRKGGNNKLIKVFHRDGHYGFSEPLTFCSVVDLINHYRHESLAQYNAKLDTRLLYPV

CC[C@H](C)[C@H](NC(=O)[C@H](CC(C)C)NC(=O)[C@H](Cc1ccc(OP(=O)(O)O)cc1)NC(=O)[C@H](CCC(=O)O)NC(=O)[C@H](CC(=O)O)NC(=O)[C@H](C)NC(=O)[C@@H](N)CC(=O)O)C(=O)N1CCC[C@H]1C(=O)N[C@@H](CCC(N)=O)C(=O)N[C@@H](CCC(N)=O)C(=O)NCC(=O)N[C@@H](Cc1ccccc1)C(=O)N[C@@H](CC(=O)O)C(=O)O [ErbB1 1016 13-mer]
Kd (PIK3R2-N SH2 domain): 2.48 µM | Kd (RASA1-N SH2 domain): 1.67 µM | Kd [1]: 2.43 µM | Kd (PIK3R3-N SH2 domain; Protein PIK3R3-N, FP saturation binding, mean over replicate hits): 3.21 µM | Kd [2]: 1.1 µM | Kd (PTK6 SH2 domain; Protein PTK6, FP saturation binding, mean over replicate hits): 3.04 µM

CSCC[C@H](NC(=O)[C@H](Cc1ccc(O)cc1)NC(=O)[C@H](CCC(=O)O)NC(=O)[C@H](Cc1ccc(OP(=O)(O)O)cc1)NC(=O)[C@H](CC(=O)O)NC(=O)[C@H](CCC(=O)O)NC(=O)[C@H](CC(=O)O)NC(=O)[C@@H]1CCCN1)C(=O)N[C@@H](CC(N)=O)C(=O)N[C@@H](CCCNC(=N)N)C(=O)N[C@@H](CCC(N)=O)C(=O)N[C@@H](CCCNC(=N)N)C(=O)N[C@@H](CC(=O)O)C(=O)O [ErbB3 1260 13-mer] (HELM PEPTIDE1{P.D.E.D.[O=C([C@H](Cc1ccc(OP(=O)(O)O)cc1)N[*:1])[*:2]].E.Y.M.N.R.Q.R.D}$$$$V2.0)
Kd (PIK3R1-N SH2 domain): 0.48 µM | Kd (PIK3R1-C SH2 domain): 0.47 µM | Kd (GRB7 SH2 domain): 0.1 µM

CC[C@H](C)[C@H](NC(=O)[C@@H]1CCCN1C(=O)[C@@H](NC(=O)[C@H](CCCCN)NC(=O)[C@H](C)NC(=O)[C@H](CCC(=O)O)NC(=O)[C@H](CO)NC(=O)[C@H](Cc1ccc(OP(=O)(O)O)cc1)NC(=O)[C@H](CC(C)C)NC(=O)[C@H](CC(C)C)NC(=O)[C@H](CCC(N)=O)NC(=O)[C@@H](N)CCCCN)[C@@H](C)O)C(=O)N[C@@H](CC(=O)O)C(=O)O [ErbB3 868 13-mer] (HELM PEPTIDE1{K.Q.L.L.[O=C([C@H](Cc1ccc(OP(=O)(O)O)cc1)N[*:1])[*:2]].S.E.A.K.T.P.I.D}$$$$V2.0)
Kd (PTPN11-N SH2 domain): 3.61 µM | Kd [3]: 3.68 µM | Kd (SH2D1B SH2 domain): 4.96 µM

CSCC[C@H](NC(=O)[C@@H](NC(=O)[C@H](Cc1ccc(OP(=O)(O)O)cc1)NC(=O)[C@H](C)NC(=O)[C@H](CCC(=O)O)NC(=O)[C@H](CC(=O)O)NC(=O)[C@@H](N)CC(C)C)C(C)C)C(=O)N[C@@H](C)C(=O)N[C@@H](CO)C(=O)N[C@H](C(=O)N[C@@H](CC(=O)O)C(=O)N[C@@H](CC(N)=O)C(=O)N[C@@H](CC(=O)O)C(=O)O)C(C)C [ErbB1 764 13-mer] (HELM PEPTIDE1{L.D.E.A.[O=C([C@H](Cc1ccc(OP(=O)(O)O)cc1)N[*:1])[*:2]].V.M.A.S.V.D.N.D}$$$$V2.0)
Kd (PIK3R2-N SH2 domain): 2.36 µM | Kd (RASA1-N SH2 domain): 9.7 µM | Kd [1]: 3.07 µM | Kd ([4]; Protein PIK3R3-NC, FP saturation binding, mean over replicate hits): 1.91 µM

CSCC[C@H](NC(=O)[C@H](C)NC(=O)[C@H](C)NC(=O)[C@H](Cc1ccc(OP(=O)(O)O)cc1)NC(=O)[C@H](CC(=O)O)NC(=O)CNC(=O)CNC(=O)[C@@H]1CCCN1)C(=O)NCC(=O)N[C@@H](C)C(=O)N[C@@H](CS)C(=O)N1CCC[C@H]1C(=O)N[C@@H](CC(=O)O)C(=O)O [ErbB3 1276 13-mer] (HELM PEPTIDE1{P.G.G.D.[O=C([C@H](Cc1ccc(OP(=O)(O)O)cc1)N[*:1])[*:2]].A.A.M.G.A.C.P.D}$$$$V2.0)
Kd (PIK3R1-N SH2 domain): 6 µM | Kd (PIK3R3-C SH2 domain): 9.86 µM | Kd (PIK3R3-N SH2 domain; [6]): 2.46 µM | Kd (PIK3R1-C SH2 domain): 2.3 µM | Kd [4, 7]: 3.71 µM

CC(C)C[C@H](NC(=O)[C@H](Cc1ccc(O)cc1)NC(=O)[C@H](CC(C)C)NC(=O)[C@@H]1CCCN1C(=O)[C@H](CCC(=O)O)NC(=O)[C@H](CC(N)=O)NC(=O)[C@@H](NC(=O)[C@H](Cc1ccc(OP(=O)(O)O)cc1)NC(=O)[C@H](CCC(=O)O)NC(=O)[C@H](CC(=O)O)NC(=O)[C@H](CCC(=O)O)NC(=O)[C@H](C)N)C(C)C)C(=O)N[C@@H](CC(=O)O)C(=O)O [ErbB4 1202 13-mer] (HELM PEPTIDE1{A.E.D.E.[O=C([C@H](Cc1ccc(OP(=O)(O)O)cc1)N[*:1])[*:2]].V.N.E.P.L.Y.L.D}$$$$V2.0)
Kd (PIK3R1-N SH2 domain): 1.35 µM | Kd (RASA1-N SH2 domain): 1.46 µM | Kd [1]: 4.97 µM | Kd (PLCG1-C SH2 domain): 1.55 µM | Kd (PIK3R3-N SH2 domain; [6]): 1.86 µM | Kd (PTK6 SH2 domain; protein PTK6, mean of replicate hits): 1.19 µM | Kd [5]: 1.54 µM | Kd (YES1 SH2 domain; protein YES1, mean of replicate hits): 1.61 µM | Kd [4, 7]: 2.86 µM | Kd (GRB7 SH2 domain): 2.06 µM

CSCC[C@H](NC(=O)[C@H](CC(C)C)NC(=O)[C@H](C)NC(=O)[C@H](CCCNC(=N)N)NC(=O)[C@H](Cc1ccc(OP(=O)(O)O)cc1)NC(=O)[C@H](Cc1ccccc1)NC(=O)[C@H](CC(N)=O)NC(=O)[C@H](CO)NC(=O)[C@@H](N)CC(=O)O)C(=O)N[C@@H](CC(=O)O)C(=O)N[C@@H](CCC(=O)O)C(=O)N[C@@H](CCC(=O)O)C(=O)N[C@@H](CC(=O)O)C(=O)O [ErbB1 998 13-mer] (HELM PEPTIDE1{D.S.N.F.[O=C([C@H](Cc1ccc(OP(=O)(O)O)cc1)N[*:1])[*:2]].R.A.L.M.D.E.E.D}$$$$V2.0)
Kd (PTPN11-N SH2 domain): 13.1 µM | Kd (RASA1-N SH2 domain): 2.85 µM | Kd (SH2D1B SH2 domain): 3.98 µM | Kd (LCK SH2 domain): 5.79 µM | Kd [2]: 12.6 µM | Kd (YES1 SH2 domain; Protein YES1, FP saturation binding, mean over replicate hits): 7.05 µM
